Laboratory results reported in the supplement of paper PMC7108870.

Legend:
[1] = system: HEK293sieSTAT3(wt); experiment: drug sensitivity score (DSS), cytotoxicity CellTox Green (DSS (dimensionless)); higher = more cytotoxic; extreme values may be limits of the assay; conditions: 72 h; STAT3 variant: wild type
Procedure, shortened: (§1)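 HEK293 cells bearing a STAT3-dependent luciferase reporter and overexpressing wild-type or mutant STAT3 were incubated with compounds at 5 concentrations in 10-fold steps for 72 hours at 37°C and 5% CO2. CellTox Green fluorescence and then CellTiter-Glo luminescence were measured, and values were normalised to negative and positive control wells. In Breeze, a drug sensitivity score was computed from the dose-response curve area.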

[2] = system: HEK293sieSTAT3(Y640F); experiment: as above; conditions: 72 h; STAT3 variant: Y640F (constitutively active)
Procedure, shortened: as §1

[3] = system: HEK293sieSTAT3(wt); experiment: drug sensitivity score (DSS), viability CellTiter-Glo (DSS (dimensionless)); higher = more growth inhibition; extreme values may be limits of the assay; conditions: 72 h; STAT3 variant: wild type
Procedure, shortened: as §1

[4] = system: HEK293sieSTAT3(Y640F); experiment: as above; conditions: 72 h; STAT3 variant: Y640F (constitutively active)
Procedure, shortened: as §1

Row | SMILES | drug sensitivity score [1] | drug sensitivity score [2] | drug sensitivity score [3] | drug sensitivity score [4]
1 | COc1ccc(C[C@H](NC(=O)[C@H](C)NC(=O)CN2CCOCC2)C(=O)N[C@@H](Cc2ccccc2)C(=O)C2(C)CO2)cc1 (stereo in doubt) [ONX-0914] (top concentration tested 10000 nM) | 19.9 | 18.6 | 21.7 | 19.9
2 | Cc1ccc(C(=O)N(CCCN)[C@@H](c2oc3cc(Cl)ccc3c(=O)c2Cc2ccccc2)C(C)C)cc1 (top concentration tested 100 nM) | 8.48 | 0.83 | 12.3 | 10.7
3 | CCn1cc(-c2ccnc3[nH]c(-c4cccc(CN(C)C)c4)cc23)c(-c2ccc(NC(=O)N(C)C)cc2)n1 (top concentration tested 1000 nM) | 0.19 | 0 | 5.64 | 4.73
4 | CN1CCC(COc2cnc(-c3cccc(Cn4nc(-c5cccc(C#N)c5)ccc4=O)c3)nc2)CC1 (top concentration tested 1000 nM) | 0 | 0 | 0 | 0
5 | CNC(=O)c1ccc(C)c(-n2c(C)cc(OCc3ccc(F)cc3F)c(Br)c2=O)c1 (top concentration tested 1000 nM) | 0 | 0 | 3.62 | 4.08
6 | C[C@@H](Oc1ccc2[nH]nc(/C=C/c3cnn(CCO)c3)c2c1)c1c(Cl)cncc1Cl (top concentration tested 1000 nM) | 0 | 0 | 5.39 | 6.64
7 | C[C@H]1Oc2cc(cnc2N)-c2c(nn(C)c2C#N)CN(C)C(=O)c2ccc(F)cc21 (top concentration tested 1000 nM) | 0 | 0 | 1.84 | 5.03
8 | O=C(NOC[C@H](O)CO)c1ccc(F)c(F)c1Nc1ccc(I)cc1F (top concentration tested 1000 nM) | 0 | 0 | 0 | 0
9 | CCOc1ccn(-c2ccc(F)cc2)c(=O)c1C(=O)Nc1ccc(Oc2ccnc(N)c2Cl)c(F)c1 (top concentration tested 2500 nM) | 0 | 0 | 4.83 | 0.75
10 | Cc1cccc(CC(=O)N2CCc3c2ccc(-c2cn(C)c4ncnc(N)c24)c3F)n1 (top concentration tested 2500 nM) | 0.89 | 0 | 0 | 0
11 | OCCn1cc(-c2cnc3nnn(Cc4ccc5ncccc5c4)c3n2)cn1 (top concentration tested 2500 nM) | 0.12 | 0 | 0 | 1.78
12 | CNC(=O)c1ccccc1Nc1nc(Nc2ccc3c(c2OC)CCC[C@H](N2CCN(CCO)CC2)C3)ncc1Cl (top concentration tested 5000 nM) | 6.35 | 0 | 9.3 | 7.82
13 | Cc1ncc(Cl)cc1NCc1ccc(C(=O)N[C@@H](CC2CCCC2)C(=O)NC2CC2)s1 (top concentration tested 5000 nM) | 0 | 0.4 | 0.63 | 4.24
14 | CC(=O)NCC(=O)N1[C@@H]2CC[C@H]1c1ccc(Nc3ncc(C(F)(F)F)c(NC4CCC4)n3)cc12 (top concentration tested 10000 nM) | 8.9 | 1.98 | 16.8 | 13.2
15 | CC(C)(C)C[C@@H]1N[C@@H](C(=O)N[C@H]2CC[C@H](O)CC2)[C@H](c2cccc(Cl)c2F)[C@]12C(=O)Nc1cc(Cl)ccc12 (top concentration tested 10000 nM) | 2.72 | 2.22 | 4.33 | 3.68
16 | CC(C)CC(=O)Nc1n[nH]c2c1CN(C(=O)C1CCN(C)CC1)C2(C)C (top concentration tested 10000 nM) | 19 | 4.64 | 13.4 | 12.4
17 | CC(C)Oc1ccc(C(=O)N[C@H](CNC(=O)CN(C)C)Cc2ccc(-c3cn4cccc([C@H](C)O)c4n3)cc2)cc1Cl (top concentration tested 10000 nM) | 11.4 | 2.45 | 15.3 | 14.7
18 | CCNC(=O)C[C@@H]1N=C(c2ccc(Cl)cc2)c2cc(OC)ccc2-n2c(C)nnc21 (top concentration tested 10000 nM) | 5.42 | 0.87 | 4.81 | 9.51
19 | CCn1c(-c2nonc2N)nc2c(C#CC(C)(C)O)ncc(OC[C@H]3CCCNC3)c21 (top concentration tested 10000 nM) | 1.28 | 0.19 | 16.9 | 13.7
20 | CCn1c(C(=O)N(C2CC2)C2CC2)cc2c3c(ncn3C)c(Nc3cc(C)n(C)n3)nc21 (top concentration tested 10000 nM) | 0 | 0 | 0.76 | 0.09
21 | CN(c1ncccc1CNc1nc(Nc2ccc3c(c2)CC(=O)N3)ncc1C(F)(F)F)S(C)(=O)=O (top concentration tested 10000 nM) | 7.18 | 1.32 | 12 | 8.82
22 | CNc1nc(-c2ccc3c(N)n[nH]c3c2)cc(N2C[C@@H](C(=O)NC3CCCCC3)CC[C@H]2C)n1 (top concentration tested 10000 nM) | 0 | 0.35 | 4.33 | 1.37
23 | CNc1ncc2cc(-c3cc(NC(=O)NCCC(C)(C)C)c(F)cc3C)c(C)nc2n1 (top concentration tested 10000 nM) | 0.9 | 0 | 3.99 | 5.64
24 | COCC(=O)NC/C=C/c1ccc2ncnc(Nc3ccc(Oc4ccc(C)nc4)c(C)c3)c2c1 (top concentration tested 10000 nM) | 2.66 | 0 | 3.61 | 1.25

Row | SMILES | drug sensitivity score [1] | drug sensitivity score [2] | drug sensitivity score [3] | drug sensitivity score [4]
25 | COc1cc2ncnc(Oc3cccc(NC(=O)Nc4cc(C(C)(C)C(F)(F)F)on4)c3)c2cc1OC (top concentration tested 10000 nM) | 0 | 0.44 | 2.4 | 1.53
26 | COc1ccc(-c2cc3c(C)nc(N)nc3n([C@H]3CC[C@H](OCCO)CC3)c2=O)cn1 (top concentration tested 10000 nM) | 2.91 | 0 | 23.3 | 20.1
27 | COc1ccc(Cn2ccc3ccc(C(=O)NO)cc32)cc1 (top concentration tested 10000 nM) | 0 | 0 | 3.02 | 2.79
28 | CS(=O)(=O)N1CCc2c(-c3cnc(N)nc3)nc(N3CCOCC3)nc21 (top concentration tested 10000 nM) | 5.98 | 0 | 15.5 | 12
29 | C[C@@H](Oc1cc(-n2cnc3ccc(CN4CCN(C)CC4)cc32)sc1C(N)=O)c1ccccc1C(F)(F)F (top concentration tested 10000 nM) | 37.4 | 15.3 | 36.5 | 37.9
30 | C[C@@]1(C(=O)Nc2ccc(F)nc2)CCCN1c1nc(Nc2cc(C3CC3)n[nH]2)c2cccn2n1 (top concentration tested 10000 nM) | 5.21 | 0.48 | 15.8 | 17.4
31 | Cc1c(Cn2c(C)nc3c(C(=O)O)cc(N4CCOCC4)cc32)cccc1C(F)(F)F (top concentration tested 10000 nM) | 0.07 | 0 | 3 | 0.96
32 | Cc1c(NC(=O)OC[C@@H]2COCCN2)cn2ncnc(Nc3ccc4c(cnn4Cc4cccc(F)c4)c3)c12 (top concentration tested 10000 nM) | 6.8 | 0.83 | 6.6 | 2.59
33 | Cc1nc(Nc2n[nH]c3c2CN(C(=O)N[C@H](CN(C)C)c2ccccc2)C3(C)C)c2sccc2n1 (top concentration tested 10000 nM) | 34 | 0.9 | 32.7 | 19.3
34 | Cn1cc(-c2ccc3nnc(C(F)(F)c4ccc5ncccc5c4)n3n2)cn1 (top concentration tested 10000 nM) | 0 | 0 | 3.09 | 0
35 | Cn1cc(C2=Nc3cc(NC(=O)C(N)C4CCCCC4)cc4c3C2=CNNC4=O)cn1 (centres undefined) (top concentration tested 10000 nM) | 5.91 | 2.57 | 15.8 | 17.5
36 | N#Cc1ccc(COC[C@H]2O[C@@H](n3c(NCc4ccc(Cl)c(Cl)c4)nc4c(N)ncnc43)[C@H](O)[C@@H]2O)cc1 (top concentration tested 10000 nM) | 0.11 | 0 | 3.11 | 4.87
37 | NC[C@@](O)(c1ccc(Cl)cc1)c1ccc(-c2cn[nH]c2)cc1 (top concentration tested 10000 nM) | 6.61 | 6.08 | 6.8 | 7.85
38 | Nc1nccc(-c2c(-c3ccc(F)cc3)ncn2C2CCCCC2)n1 (top concentration tested 10000 nM) | 0 | 0 | 4.08 | 3.49
39 | Nc1ncnc2c1c(COc1cccc(Cl)c1)nn2C1CCOCC1 (top concentration tested 10000 nM) | 0 | 0 | 0.14 | 0
40 | O=C(NC[C@H](O)CN1CCc2ccccc2C1)c1cc(NC2COC2)ncn1 (top concentration tested 10000 nM) | 0 | 0 | 0 | 0
41 | O=C(NOCC1CC1)c1ccc(F)c(F)c1Nc1ccc(I)cc1Cl (top concentration tested 10000 nM) | 0 | 0 | 2.33 | 1.63
42 | O=C(Nc1ccc2[nH]nc(-c3ccncc3)c2c1)[C@@H]1CCN(CC(=O)N2CCN(c3ccc(-c4ncccn4)cc3)CC2)C1 (top concentration tested 10000 nM) | 0 | 0.69 | 1.44 | 3.37
43 | O=C(O)c1ccc(CN2CCC(CN[C@@H]3C[C@H]3c3ccccc3)CC2)cc1 (top concentration tested 10000 nM) | 0 | 0 | 0 | 0
44 | O=C1NC(=O)/C(=C/c2ccc3nccc(-c4ccncc4)c3c2)S1 (top concentration tested 10000 nM) | 3.49 | 0 | 11.3 | 15.4
45 | O=c1[nH]c(C2CCCN2)nc2c1oc1ccc(Cl)cc12 (centres undefined) (top concentration tested 10000 nM) | 0 | 0 | 6.39 | 5.66
46 | Cc1ccc(C(=O)Nc2ccc(CN3CCN(C)CC3)c(C(F)(F)F)c2)cc1C#Cc1cnc2cccnn12 [Ponatinib] (top concentration tested 1000 nM) |  |  | 9.83 | 6.74
47 | CCC(C)(C)C(=O)O[C@H]1C[C@@H](C)C=C2C=C[C@H](C)[C@H](CC[C@@H]3C[C@@H](O)CC(=O)O3)[C@H]21 [Simvastatin] (top concentration tested 10000 nM) |  |  | 3.28 | 0.89
